From US20060069132A1, “Azolecarboxamide herbicides” (priority 2004, published 2006)

Assays:
wheat = assay: Test B postemergence herbicide test; format: in vivo, Triticum aestivum; design: key to Wheat plant response rating: 0 = no effect, 100 = complete control; conditions: postemergence, visual rating, scale 0 (no effect) to 100 (complete control)
Procedure, shortened: (§1)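 After treating 2-leaf paddy plants or 2–18 cm postemergence plants (1 to 4 leaves) with formulated chemical, researchers kept them in a greenhouse for 13–15 days. Effects were judged visually versus controls: 0 indicates none, 100 total control.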

ducksalad = assay: Test B flooded paddy test; format: in vivo, Heteranthera limosa; conditions: 1000 g ai/ha, visual rating, scale 0 to 100 (0 no effect, 100 complete control), 13 to 15 days
Procedure, shortened: (§2)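 Treated at 2-leaf (paddy) or 1–4-leaf, 2–18 cm (postemergence); greenhouse 13–15 d; visual score vs control, 0 none to 100 complete control; dash = not tested.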

large crabgrass = assay: Test B pre-/postemergence herbicide test; format: in vivo, Digitaria sanguinalis; conditions: for Plant response rating, Crabgrass, Large: preemergence; for Crabgrass, Large plant response rating: postemergence, visual rating, scale 0 (no effect) to 100 (complete control)
Procedure, shortened: (§3)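 Greenhouse pot assay with simultaneous preemergence (treated seed) and postemergence (2–18 cm seedlings) applications of surfactant-containing, non-phytotoxic solvent formulations. Response scored visually 13–15 days later on a 0–100 scale, 100 meaning complete control.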

Surinam grass = assay: Test B pre-/postemergence herbicide test; format: in vivo, Urochloa decumbens; conditions: for Plant response rating, Surinam Grass: preemergence; for Surinam Grass plant response rating: postemergence, visual rating, scale 0 (no effect) to 100 (complete control)
Procedure, shortened: as §3

blackgrass = assay: Test B postemergence herbicide test; format: in vivo, Alopecurus myosuroides; conditions: postemergence, visual rating, scale 0 (no effect) to 100 (complete control)
Procedure, shortened: as §2

rice = assay: Test B flooded paddy test; format: in vivo, Oryza sativa; conditions: 1000 g ai/ha, visual rating, scale 0 to 100 (0 no effect, 100 complete control), 13 to 15 days
Procedure, shortened: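 Greenhouse test; postemergence application to plants at 1–4 leaves (2–18 cm); paddy species at 2 leaves; evaluated visually vs controls at 13–15 days; scale 0–100 (100 = complete control).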

morningglory = assay: Test B pre-/postemergence herbicide test; format: in vivo, Ipomoea coccinea; conditions: for Plant response rating, Morningglory: preemergence; for Morningglory plant response rating: postemergence, visual rating, scale 0 (no effect) to 100 (complete control)
Procedure, shortened: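 Herbicidal effect was judged by eye on a 0–100 scale after plants stood 13 to 15 days in the greenhouse following pre- or postemergence treatment with surfactant-containing formulations.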

[1] = tested on: small flower umbrella sedge; assay: Test B flooded paddy test; format: in vivo, Cyperus difformis; conditions: 1000 g ai/ha, visual rating, scale 0 to 100 (0 no effect, 100 complete control), 13 to 15 days
Procedure, shortened: as §2

wild oat = assay: Test B postemergence herbicide test; format: in vivo, Avena fatua; conditions: postemergence, visual rating, scale 0 (no effect) to 100 (complete control)
Procedure, shortened: as §1

corn = assay: Test B pre-/postemergence herbicide test; format: in vivo, Zea mays; conditions: for Plant response rating, Corn: preemergence; for Corn plant response rating: postemergence, visual rating, scale 0 (no effect) to 100 (complete control)
Procedure, shortened: as §3

lambsquarters = assay: Test B pre-/postemergence herbicide test; format: in vivo, Chenopodium album; conditions: for Plant response rating, Lambsquarters: preemergence; for Lambsquarters plant response rating: postemergence, visual rating, scale 0 (no effect) to 100 (complete control)
Procedure, shortened: as §3

giant foxtail = assay: Test B pre-/postemergence herbicide test; format: in vivo, Setaria faberi; conditions: for Plant response rating, Foxtail, Giant: preemergence; for Foxtail, Giant plant response rating: postemergence, visual rating, scale 0 (no effect) to 100 (complete control)
Procedure, shortened: as §3

barnyardgrass = assay: Test B flooded paddy test; format: in vivo, Echinochloa crus-galli; conditions: 1000 g ai/ha, visual rating, scale 0 to 100 (0 no effect, 100 complete control), 13 to 15 days
Procedure, shortened: as §2

velvetleaf = assay: Test B pre-/postemergence herbicide test; format: in vivo, Abutilon theophrasti; conditions: for Plant response rating, Velvetleaf: preemergence; for Velvetleaf plant response rating: postemergence, visual rating, scale 0 (no effect) to 100 (complete control)
Procedure, shortened: as §3

pigweed = assay: Test B pre-/postemergence herbicide test; format: in vivo, Amaranthus retroflexus; conditions: for Plant response rating, Pigweed: preemergence; for Pigweed plant response rating: postemergence, visual rating, scale 0 (no effect) to 100 (complete control)
Procedure, shortened: as §3

[2] = 500 g ai/ha, visual rating 0-100, 0 no effect, 100 complete control
[3] = 125 g ai/ha, 0 to 100 scale, 0 is no effect, 100 is complete control

Question: `CCCCOc1cccc(NC(=O)c2cc(C(C)(C)C)nn2CC)c1` [Compound 137] was tested. Which “Wheat plant response rating” value (wheat; 125 g ai/ha) did it give?
Answer: 10

Question: What about the “Wheat plant response rating” value (wheat; 500 g ai/ha) of the same compound?
Answer: 20

Question: And the “Ducksalad plant response rating” value (ducksalad)?
Answer: 30

Question: What about the “Plant response rating, Crabgrass, Large” value (large crabgrass; [2]) of the same compound?
Answer: 100

Question: And the “Crabgrass, Large plant response rating” value (large crabgrass; 125 g ai/ha)?
Answer: 10

Question: What about the “Crabgrass, Large plant response rating” value (large crabgrass; 500 g ai/ha) of the same compound?
Answer: 30

Question: What about the “Plant response rating, Crabgrass, Large” value (large crabgrass; [3]) of the same compound?
Answer: 80

Question: What about the “Plant response rating, Surinam Grass” value (Surinam grass; [2]) of the same compound?
Answer: 80

Question: And the “Surinam Grass plant response rating” value (Surinam grass; 125 g ai/ha)?
Answer: 20

Question: What about the “Surinam Grass plant response rating” value (Surinam grass; 500 g ai/ha) of the same compound?
Answer: 70

Question: And the “Plant response rating, Surinam Grass” value (Surinam grass; [3])?
Answer: 20

Question: What about the “Blackgrass plant response rating” value (blackgrass; 125 g ai/ha) of the same compound?
Answer: 10

Question: And the “Blackgrass plant response rating” value (blackgrass; 500 g ai/ha)?
Answer: 20

Question: What about the “Rice plant response rating” value (rice) of the same compound?
Answer: 20

Question: And the “Plant response rating, Morningglory” value (morningglory; [2])?
Answer: 20

Question: What about the “Morningglory plant response rating” value (morningglory; 125 g ai/ha) of the same compound?
Answer: 0

Question: What about the “Morningglory plant response rating” value (morningglory; 500 g ai/ha) of the same compound?
Answer: 60

Question: What about the “Plant response rating, Morningglory” value (morningglory; [3]) of the same compound?
Answer: 0

Question: And the “Sedge, Umbrella plant response rating” value [1]?
Answer: 90

Question: What about the “Oat, Wild plant response rating” value (wild oat; 125 g ai/ha) of the same compound?
Answer: 30

Question: And the “Oat, Wild plant response rating” value (wild oat; 500 g ai/ha)?
Answer: 70

Question: What about the “Plant response rating, Corn” value (corn; [2]) of the same compound?
Answer: 10

Question: What about the “Corn plant response rating” value (corn; 125 g ai/ha) of the same compound?
Answer: 10

Question: What about the “Corn plant response rating” value (corn; 500 g ai/ha) of the same compound?
Answer: 20

Question: What about the “Plant response rating, Corn” value (corn; [3]) of the same compound?
Answer: 10

Question: And the “Plant response rating, Lambsquarters” value (lambsquarters; [2])?
Answer: 80

Question: And the “Lambsquarters plant response rating” value (lambsquarters; 125 g ai/ha)?
Answer: 80

Question: And the “Lambsquarters plant response rating” value (lambsquarters; 500 g ai/ha)?
Answer: 80

Question: And the “Plant response rating, Lambsquarters” value (lambsquarters; [3])?
Answer: 10

Question: And the “Plant response rating, Foxtail, Giant” value (giant foxtail; [2])?
Answer: 80

Question: What about the “Foxtail, Giant plant response rating” value (giant foxtail; 125 g ai/ha) of the same compound?
Answer: 10

Question: What about the “Foxtail, Giant plant response rating” value (giant foxtail; 500 g ai/ha) of the same compound?
Answer: 20

Question: What about the “Plant response rating, Foxtail, Giant” value (giant foxtail; [3]) of the same compound?
Answer: 40

Question: What about the “Barnyardgrass plant response rating” value (barnyardgrass) of the same compound?
Answer: 20

Question: And the “Plant response rating, Velvetleaf” value (velvetleaf; [2])?
Answer: 60

Question: And the “Velvetleaf plant response rating” value (velvetleaf; 125 g ai/ha)?
Answer: 40

Question: And the “Velvetleaf plant response rating” value (velvetleaf; 500 g ai/ha)?
Answer: 60

Question: What about the “Plant response rating, Velvetleaf” value (velvetleaf; [3]) of the same compound?
Answer: 10

Question: And the “Plant response rating, Pigweed” value (pigweed; [2])?
Answer: 100

Question: And the “Pigweed plant response rating” value (pigweed; 125 g ai/ha)?
Answer: 90

Question: And the “Pigweed plant response rating” value (pigweed; 500 g ai/ha)?
Answer: 100

Question: What about the “Plant response rating, Pigweed” value (pigweed; [3]) of the same compound?
Answer: 80

Question: What does the source list for `CCn1nc(C(C)(C)C)cc1C(=O)Nc1cccc(OCCCF)c1` [Compound 138]?
Answer: Wheat plant response rating (wheat; 125 g ai/ha): 20; Wheat plant response rating (wheat; 500 g ai/ha): 30; Ducksalad plant response rating (ducksalad): 80; Plant response rating, Crabgrass, Large (large crabgrass; [2]): 100; Crabgrass, Large plant response rating (large crabgrass; 125 g ai/ha): 20; Crabgrass, Large plant response rating (large crabgrass; 500 g ai/ha): 20; Plant response rating, Crabgrass, Large (large crabgrass; [3]): 40; Plant response rating, Surinam Grass (Surinam grass; [2]): 30; Surinam Grass plant response rating (Surinam grass; 125 g ai/ha): 20; Surinam Grass plant response rating (Surinam grass; 500 g ai/ha): 30; Plant response rating, Surinam Grass (Surinam grass; [3]): 0; Blackgrass plant response rating (blackgrass; 125 g ai/ha): 0; Blackgrass plant response rating (blackgrass; 500 g ai/ha): 20; Rice plant response rating (rice): 50; Plant response rating, Morningglory (morningglory; [2]): 20; Morningglory plant response rating (morningglory; 125 g ai/ha): 20; Morningglory plant response rating (morningglory; 500 g ai/ha): 60; Plant response rating, Morningglory (morningglory; [3]): 0; Sedge, Umbrella plant response rating [1]: 80; Oat, Wild plant response rating (wild oat; 125 g ai/ha): 20; Oat, Wild plant response rating (wild oat; 500 g ai/ha): 30; Plant response rating, Corn (corn; [2]): 10; Corn plant response rating (corn; 125 g ai/ha): 20; Corn plant response rating (corn; 500 g ai/ha): 30; Plant response rating, Corn (corn; [3]): 0; Plant response rating, Lambsquarters (lambsquarters; [2]): 100; Lambsquarters plant response rating (lambsquarters; 125 g ai/ha): 80; Lambsquarters plant response rating (lambsquarters; 500 g ai/ha): 90; Plant response rating, Lambsquarters (lambsquarters; [3]): 0; Plant response rating, Foxtail, Giant (giant foxtail; [2]): 70; Foxtail, Giant plant response rating (giant foxtail; 125 g ai/ha): 20; Foxtail, Giant plant response rating (giant foxtail; 500 g ai/ha): 30; Plant response rating, Foxtail, Giant (giant foxtail; [3]): 30; Barnyardgrass plant response rating (barnyardgrass): 10; Plant response rating, Velvetleaf (velvetleaf; [2]): 40; Velvetleaf plant response rating (velvetleaf; 125 g ai/ha): 20; Velvetleaf plant response rating (velvetleaf; 500 g ai/ha): 50; Plant response rating, Velvetleaf (velvetleaf; [3]): 0; Plant response rating, Pigweed (pigweed; [2]): 100; Pigweed plant response rating (pigweed; 125 g ai/ha): 60; Pigweed plant response rating (pigweed; 500 g ai/ha): 90; Plant response rating, Pigweed (pigweed; [3]): 60
